What was measured:
[1] = cited from earlier work; for interconversion on heating (desolvation experiments): Form E: about 125° C. for about five minutes, Form B: 175° C. for about five minutes; for interconversion of polymorphic form: solvent system or relative humidity as stated; for hygroscopicity: crystalline polymorphic form
subjects = experiment: Pittsburgh Sleep Quality Index study (PSQI, daily sleep diary); format: in vivo, human; details: 10 mg/day orally, 12 week study, twelve subjects
Experimental: Twelve subjects were treated with 10 mg/day of 3-(4-amino-1-oxo-1,3-dihydro-isoindol-2-yl)-piperidine-2,6-dione orally for 12 weeks. Subjects were seen every 2 weeks until study completion. Subjects were asked to keep a daily sleep diary asking how much interference with sleep (0-10 scale) was experienced. Patients were also asked to complete the Pittsburgh Sleep Quality Inventory (PSQI) at the start of the treatment and ever 4 weeks thereafter, Buysse, DJ et al., Journal of Psychiatric Research, 28 (2), 193-213, 1989.

SMILES	interconversion on heating (desolvation experiments) [1]	interconversion of polymorphic form [1]	hygroscopicity [1]	further results
Nc1cccc2c1CN(C1CCC(=O)NC1=O)C2=O (stereo not shown) [Form B, 3-(4-amino-1-oxo-1,3 dihydro-isoindol-2-yl)-piperidene-2,6-dione]	can convert to Form F	converts to Form E in aqueous solvent systems	–	–
Nc1cccc2c1CN(C1CCC(=O)NC1=O)C2=O (stereo not shown) [Form A, 3-(4-amino-1-oxo-1,3 dihydro-isoindol-2-yl)-piperidene-2,6-dione]	–	–	weakly or not hygroscopic	relative stability of polymorph ([1]; Form A: among anhydrous polymorphs, Form E: in aqueous solvent systems): most thermodynamically stable anhydrous polymorph
Nc1cccc2c1CN(C1CCC(=O)NC1=O)C2=O (stereo not shown) [Form C, 3-(4-amino-1-oxo-1,3 dihydro-isoindol-2-yl)-piperidene-2,6-dione]	–	can convert to Form B at higher relative humidities	not hygroscopic below about 85% RH	–
Nc1cccc2c1CN(C1CCC(=O)NC1=O)C2=O (stereo not shown) [Form E, 3-(4-amino-1-oxo-1,3 dihydro-isoindol-2-yl)-piperidene-2,6-dione]	can convert to Form B	can convert to Form C in an acetone solvent system and to Form G in a THF solvent system	–	–
Nc1cccc2c1CN(C1CCC(=O)NC1=O)C2=O (stereo not shown) [3-(4-amino-1-oxo-1,3-dihydro-isoindol-2-yl)-piperidine-2,6-dione]	–	–	–	need for sleep medications (subjects): significantly improved; overall sleep quality (subjects): significantly improved; presence of daytime sleepiness (subjects): significantly improved
Nc1cccc2c1CN(C1CCC(=O)NC1=O)C2=O (stereo not shown) [Form D, 3-(4-amino-1-oxo-1,3 dihydro-isoindol-2-yl)-piperidene-2,6-dione]	–	will typically convert to Form B when stressed at higher relative humidities	either weakly or not hygroscopic	–

Reference: US20050222209A1, “Methods and compositions for the treatment, prevention or management of dysfunctional sleep and dysfunctional sleep associated with disease” (priority 2004, published 2005)
